One test concerns the target T1, Adenosine A2B Receptor (Homo sapiens, UniProt P29275).
T1 sequence (P29275 1-332): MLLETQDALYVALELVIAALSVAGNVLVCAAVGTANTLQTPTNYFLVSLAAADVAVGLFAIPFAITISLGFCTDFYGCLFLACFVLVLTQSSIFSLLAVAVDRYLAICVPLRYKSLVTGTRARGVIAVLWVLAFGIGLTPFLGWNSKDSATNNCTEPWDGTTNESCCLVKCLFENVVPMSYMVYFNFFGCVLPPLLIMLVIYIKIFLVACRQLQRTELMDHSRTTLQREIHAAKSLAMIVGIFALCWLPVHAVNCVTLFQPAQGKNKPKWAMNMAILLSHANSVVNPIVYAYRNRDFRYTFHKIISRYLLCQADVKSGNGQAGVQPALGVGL
The experiment in a line: Activity assay of adenosine receptor modulators, Adenosine A2B Receptor (Table 1). Type of test: biochemical. To be noted: cAMP; read-out: A2BR cAMP IC50. The method, then: (§1) Compounds (e.g., adenosine receptor modulators) were tested for its biological activity. The assay results in Table 1 indicate (+ means >1 μM; ++ means 100 nM to 1 μM; +++ means <100 nM).

A further test has as its target Adenosine A2A Receptor (Homo sapiens, UniProt P29274). In words: Activity assay of adenosine receptor modulators, Adenosine A2A Receptor (Table 1). Type of test: biochemical. To be noted: cAMP; read-out: A2AR cAMP IC50. The method, then: as §1

The structures appear in SMILES notation.

In general, IC50 refers to the point on the concentration scale where inhibition reaches its midpoint.

Adenosine A2A Receptor, sequence (P29274 whole entry): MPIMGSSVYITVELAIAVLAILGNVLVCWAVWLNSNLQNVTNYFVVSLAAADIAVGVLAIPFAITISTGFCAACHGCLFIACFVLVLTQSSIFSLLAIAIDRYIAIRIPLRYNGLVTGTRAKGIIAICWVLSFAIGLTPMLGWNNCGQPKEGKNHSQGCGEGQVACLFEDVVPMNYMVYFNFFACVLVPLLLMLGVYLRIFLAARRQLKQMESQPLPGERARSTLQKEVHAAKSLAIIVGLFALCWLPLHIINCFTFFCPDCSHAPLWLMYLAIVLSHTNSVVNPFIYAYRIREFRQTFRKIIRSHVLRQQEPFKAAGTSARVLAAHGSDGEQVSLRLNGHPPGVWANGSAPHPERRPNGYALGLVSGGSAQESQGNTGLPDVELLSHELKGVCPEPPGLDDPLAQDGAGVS

Consider `Cc1nc2nc(N[C@@H](C)c3cncc(F)c3)nc(C(=O)N3CCN(C(=O)CC(C)(C)C)C3)c2s1` [Example 34, (S)-1-(3-(5-((1-(5-Fluoropyridin-3-yl)ethyl)amino)-2-methylthiazolo[4,5-d]pyrimidine-7-carbonyl)imidazolidin-1-yl)-3,3-dimethylbutan-1-one], for which the IC50 at Adenosine A2B Receptor was 0.1 to 1 µM; on Adenosine A2A Receptor, above 1 µM.

Consider `Cc1nc2nc(N[C@@H](C)c3cncc(F)c3)nc(C(=O)NCc3cccnc3)c2s1` [Example 23, (S)-5-((1-(5-Fluoropyridin-3-yl)ethyl)amino)-2-methyl-N-(pyridin-3-ylmethyl)thiazolo[4,5-d]pyrimidine-7-carboxamide], for which the IC50 on Adenosine A2B Receptor is below 0.1 µM; on Adenosine A2A Receptor it was 0.1 to 1 µM.

Take `Cc1nc2nc(N[C@@H](C)c3cncc(F)c3)nc(C(=O)N3CC[C@H](N)C3)c2s1` [Example 43, ((S)-3-Aminopyrrolidin-1-yl)(5-(((S)-1-(5-fluoropyridin-3-yl)ethyl)amino)-2-methylthiazolo[4,5-d]pyrimidin-7-yl)methanone]: the IC50 is 0.1 to 1 µM on Adenosine A2B Receptor and above 1 µM at Adenosine A2A Receptor.

Take `Cc1nc2nc(N[C@@H](C)c3cncc(F)c3)nc(C(=O)NCCN3CCOCC3)c2s1` [Example 46, (S)-5-((1-(5-Fluoropyridin-3-yl)ethyl)amino)-2-methyl-N-(2-morpholinoethyl)thiazolo[4,5-d]pyrimidine-7-carboxamide]: the half-inhibitory concentration (IC50) at Adenosine A2B Receptor was 0.1 to 1 µM; on Adenosine A2A Receptor, above 1 µM.

Turning to `Cc1nc2nc(N[C@@H](C)c3cncc(F)c3)nc(C(=O)N3CC[C@@H](N)C3)c2s1` [Example 42, ((R)-3-Aminopyrrolidin-1-yl)(5-(((S)-1-(5-fluoropyridin-3-yl)ethyl)amino)-2-methylthiazolo[4,5-d]pyrimidin-7-yl)methanone], the concentration for half-maximal inhibition (IC50) on Adenosine A2B Receptor was 0.1 to 1 µM; on Adenosine A2A Receptor, above 1 µM.

With `Cc1nc2nc(N[C@@H](C)c3cncc(F)c3)nc(C(=O)N3CC(NC(=O)C4CCOC4)C3)c2s1` (stereo partly drawn) [Example 45, N-(1-(5-(((S)-1-(5-Fluoropyridin-3-yl)ethyl)amino)-2-methylthiazolo[4,5-d]pyrimidine-7-carbonyl)azetidin-3-yl)tetrahydrofuran-3-carboxamide], the half-maximal inhibitory concentration (IC50) on Adenosine A2B Receptor and on Adenosine A2A Receptor was 0.1 to 1 µM each time.

Turning to `Cc1nc2nc(N[C@@H](C)c3ccccn3)nc(C(=O)NC(C)C)c2s1` [Example 10, (S)—N-Isopropyl-2-methyl-5-((1-(pyridin-2-yl)ethyl)amino)thiazolo[4,5-d]pyrimidine-7-carboxamide], the IC50 at Adenosine A2B Receptor was below 0.1 µM; at Adenosine A2A Receptor, 0.1 to 1 µM.

Turning to `Cc1nc2nc(N[C@@H](C)c3cncc(F)c3)nc(C(=O)NCCC3CCN(C(=O)OC(C)(C)C)CC3)c2s1` [Example 22, tert-Butyl (S)-4-(2-(5-((1-(5-fluoropyridin-3-yl)ethyl)amino)-2-methylthiazolo[4,5-d]pyrimidine-7-carboxamido)ethyl)piperidine-1-carboxylate], the IC50 on Adenosine A2B Receptor is 0.1 to 1 µM; at Adenosine A2A Receptor, above 1 µM.

For `Cc1nc2nc(N[C@@H](C)c3cncc(F)c3)nc(C(=O)NCCNC(=O)NC(C)(C)C)c2s1` [Example 36, (S)—N-(2-(3-(tert-butyl)ureido)ethyl)-5-((1-(5-fluoropyridin-3-yl)ethyl)amino)-2-methylthiazolo[4,5-d]pyrimidine-7-carboxamide], the IC50 was above 1 µM on Adenosine A2B Receptor and 0.1 to 1 µM at Adenosine A2A Receptor.

On to `CC(=O)N(C)C1CN(C(=O)c2nc(N[C@@H](C)c3cncc(F)c3)nc3nc(C)sc23)C1` [Example 44, (S)—N-(1-(5-((1-(5-Fluoropyridin-3-yl)ethyl)amino)-2-methylthiazolo[4,5-d]pyrimidine-7-carbonyl)azetidin-3-yl)-N-methylacetamide], for which the IC50 is 0.1 to 1 µM at Adenosine A2B Receptor and above 1 µM at Adenosine A2A Receptor.
